Measurements as given in PMC12508063, “Chloroindazole based estrogen receptor β ligands with favorable pharmacokinetics promote functional remyelination and visual recovery” (Scientific Reports, 2025).

Key:
[1] = system: multiple sclerosis patients; conditions: oral estriol combined with glatiramer acetate (GA), Phase 2 trial; cited from earlier work
[2] = plasma
[3] = hepatocytes
primary mouse OPCs = assay: OL differentiation in primary mouse OPC culture (MBP, DAPI); format: cell-based; conditions: 10 nM and 100 nM, concentration-dependent
Description: Mouse and Human primary cell cultures: Primary OPC/OL culture were isolated from the cortices of postnatal day 0–1 C57BL/6J mice of both sexes, using established protocols[11],[20],[21]. Mouse OPC and Neuronal Co-cultures: Primary neuronal cultures were established in Neurobasal medium with B27 and plated on poly-L-lysine-coated coverslips. After 12 days, OPCs were isolated, counted, and added to neuronal cultures and media was replaced with neuronal and proliferation media for 3 days, then switched to maturation media that maintained both neurons and OLs. Human iPSC-derived OPCs (Tempo’s iOligo™) were expanded, cryopreserved, and later plated on Matrigel-coated coverslips. After 3 days in growth medium, cells were treated for 3 weeks with T3 containing maturation medium. Differentiation into myelin-producing OLs was assessed using O4 (OL surface marker on pre-OLs) and myelin basic protein (MBP) immunohistochemistry. In all conditions compounds or vehicle were added to culture during differentiation for either 5 days (mouse) or 18 days (human).
Immunocytochemistry and Image Analysis of cell cultures: After treatment, cells were fixed and stained for MBP and DAPI. Coverslips were imaged using a confocal microscope at 10× and 40× objectives. Cell densities were quantified using ImageJ and normalized to control conditions. MBP-positive cells, their process extensions, and highly branched OLs were counted to assess differentiation. Co-culture images were analyzed for MBP and β3-tubulin colocalization using JACoP[22] in ImageJ, with results validated by manual quantification.
Primary OL Progenitor cells (OPC) and Neuronal Cultures: OPC and cortical neuronal cultures were prepared from the cortices of postnatal day P0-P1 C57BL/6J mice of both sexes, following established protocols (1, 2);(3). The single-cell suspension was divided into two tubes. One tube was treated with warm Neuronal Basal media, counted, and plated onto poly-L-lysine (PLL)-coated glass coverslips. The second tube was resuspended in glial growth medium, composed of DMEM-F12 supplemented with 10% fetal bovine serum, and placed in a PLL-coated culture flask for 8–10 days until confluent. Primary OPCs were then isolated by shaking and either co-cultured with primary neurons or plated onto poly-D-lysine-coated glass coverslips (three coverslips per condition, 2x10^6 cells per coverslip). The OPCs were allowed to attach for three days, followed by five days in differentiating media (DMEM-F12 with Sato media containing triiodothyronine and thyroxine) supplemented with various analogues and remyelinating compounds. For comparison, a negative control (vehicle, consisting of the media and ethanol mixture used to dissolve the analogues and remyelinating compounds) and a normal control (differentiating media alone) were included in the experiments.
Quantification of Mature OLs and Co-culture axon myelination: At the conclusion of the treatment period, cells were fixed and subjected to immunocytochemistry to evaluate myelin basic protein (MBP) expression, co-stained with the nuclear marker DAPI (shown in blue). […] Cell counting was performed using the ImageJ multipoint tool, and cell densities were calculated by dividing the counts by the image area (mm²). […]
To assess OL differentiation, the number of MBP-positive (MBP+) cells and process extensions exceeding the diameter of the cell body were quantified.

[4] = plasma; remark: listed apart in the source
[5] = Stability in human plasma; format: in vitro ADME
[6] = hepatocytes, 0.25 h
EAE mice = assay: EAE clinical disease score; format: in vivo, C57BL/6J mouse; conditions: 5 mg/kg/day SC from peak disease
Procedure: EAE induction and treatment: EAE was induced in 8–10-week-old wild-type C57BL/6J mice using MOG₃₅-₅₅ peptide[11],[14],[23]–[25]. Mice were scored daily using a standard clinical scale (0–5) and tested for their ability to stay on a rotarod. […] At peak disease (18–22 days post-immunization), animals were grouped into EAE+Vehicle, EAE+K102, and EAE+K110.
Fig. 3 Experimental design for treatment effects in EAE. (A) Experimental plan. […] Following emulsion injection, mice were injected with pertussis (PTX). Mice were scored for their clinical EAE score daily. EAE mice (red) show signs of disease starting at days 8–17. At peak disease between the days […], therapeutic treatment started and continued daily until the end of the experiment (D35-45). […] N = 6–8 mice/group. Two-Way unbalanced ANOVA with Dunnett’s multiple comparisons test was performed. […]
EAE induction and treatment: Eight to ten-week-old wild-type C57BL/6J mice were induced with active EAE using MOG35-55 peptide as previously described (1-5). […] Animals were scored daily for clinical EAE scores as follows: 0, unaffected; 1, complete tail limpness; 2, failure to right upon attempt to roll over; 3, partial hind limb paralysis; 4, complete hind limb paralysis; […]. At peak disease 18-22 dpi, mice were scored and separated into 3 groups: EAE+V, EAE+SHK-K102, and EAE+K110. […]

CYP1A2 = CYP1A2 (Homo sapiens, UniProt P05177); assay: in vitro
Chain of CYP1A2 (P05177 whole entry): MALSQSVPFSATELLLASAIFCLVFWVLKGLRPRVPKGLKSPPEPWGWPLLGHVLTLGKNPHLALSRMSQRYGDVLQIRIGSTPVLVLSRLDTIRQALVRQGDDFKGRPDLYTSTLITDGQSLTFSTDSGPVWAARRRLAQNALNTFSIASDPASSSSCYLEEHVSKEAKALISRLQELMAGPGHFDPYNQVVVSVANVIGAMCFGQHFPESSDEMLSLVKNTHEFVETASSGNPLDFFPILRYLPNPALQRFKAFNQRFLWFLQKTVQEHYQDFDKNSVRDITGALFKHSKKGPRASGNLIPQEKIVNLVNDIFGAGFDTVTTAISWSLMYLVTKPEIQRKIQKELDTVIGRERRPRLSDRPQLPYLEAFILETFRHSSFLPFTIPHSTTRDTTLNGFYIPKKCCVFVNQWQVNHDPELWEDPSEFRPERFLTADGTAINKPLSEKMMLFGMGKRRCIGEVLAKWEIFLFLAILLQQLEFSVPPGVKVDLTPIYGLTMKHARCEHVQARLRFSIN

C[C@]12CC[C@@H]3c4ccc(O)cc4CC[C@H]3[C@@H]1C[C@@H](O)[C@@H]2O [estriol]
reduction in annualized relapse rate compared to placebo [1]: 32%

Oc1ccc(-n2nc3ccc(O)cc3c2Cl)cc1 [Compound K101, IndCl]
Protein Binding (% Bound) Human [2]: 98.05% | Hepatocyte Stability (Human) CLint [3]: 78.30 µL/min/mg protein | Hepatocyte Stability (Human) % Remaining (15 min) ([3]; 0.25 h): 57.83% | number of MBP+ cells vs vehicle (primary mouse OPCs): significantly increased | Protein Binding (% Bound) Mouse [4]: 97.74% | % Remaining at 6 hr in Human Plasma [5]: 91.37% | Hepatocyte Stability (Mouse) % Remaining (15 min) [6]: 10.94% | EAE clinical disease (EAE mice): decrease in EAE clinical disease

Cc1nc2c([nH]1)c(=O)n(C)c(=O)n2Cc1ccco1 [Furafylline]
inhibition at 10 µM (CYP1A2): 91.7%
